In patent US20070218456A1, “CELLULAR ASSAYS FOR SIGNALING RECEPTORS” (INVITROGEN CORPORATION, priority 2006, published 2007):
≈ marks a conversion by molar mass, not a printed value.

Experiments:
[1] = test system: TREx™-mG2A-NFAT-bla Freestyle293F cells; assay: TREx-mG2A-NFAT-bla Freestyle293F (mouse G2A) doxycycline response; assay type: cell-based; settings: Homo sapiens, FreeStyle 293-F, 16 h
Procedure: TREx™-mG2A-NFAT-bla Freestyle293F cells were stimulated for 16 hours with doxycycline in the presence of 0.5% DMSO. Cells were then loaded with LiveBLAzer™-FRET B/G (CCF4-AM) for 2 hours. Fluorescence emission values at 460 nm and 530 nm are obtained using a standard florescence plate reader and the Blue/Green Emission ratios are plotted against the concentration of the stimulant.

[2] = test system: T-REx™-GPR23-CRE-bla-CHO-K1 clone H6-E2; assay: T-REx-GPR23-CRE-bla-CHO-K1 clone H6-E2 beta-lactamase reporter assay (induction); assay type: cell-based, Chinese hamster; settings: for EC50: Cricetulus griseus
Procedure: Six clones selected for further testing were expanded and retested for their inducible GPR23 specific activity. The clones were plated at 25,000 cells per well in a 96 well black walled clear bottom tissue culture assay plate. The plates were than placed at 37° C. 5% CO2 for 24 hrs to allow the cells to attach to the assay plate. The complete media was then removed from the plate and replaced with assay media (DMEM+0.1% BSA) containing 100 ng/ml pertussis toxin with or without 1 μg/ml tetracycline. The plates were placed at 37° C. 5% CO2 for 16 hrs to allow the induced expression of the GPR23 receptor. The cells were then loaded with LiveBLAzer™-FRET B/G substrate (2 μM) containing solution D for 2 hrs. To determine the optimal cell density for this assay the cells were plated at 2,500, 5,000, 10,000, and 20,000 cells per well in a 384 well black walled clear bottom tissue culture assay plate in complete media (DMEM+10% FBS). The plates were than placed at 37° C. 5% CO2 for 24 hrs to allow the cells to attach to the assay plate. The complete media was then removed from the plate and replaced with assay media (DMEM+0.1% BSA) containing 100 ng/ml pertussis toxin and a four fold dilution series of doxycycline starting at 1 μg/ml. The plates were placed at 37° C./5% CO2 for 16 hrs to allow the induced expression of the GPR23 receptor. The cells were then loaded with LiveBLAzer™-FRET B/G substrate (2 μM) containing solution D for 2 hrs. The cells were plated at 20,000 cells per well in a 384 well black walled clear bottom tissue culture assay plate in complete media (DMEM+10% FBS). The plates were then placed at 37° C. 5% CO2 for 6 hrs to allow the cells to attach to the assay plate. The complete media was then removed from the plate and replaced with assay media (DMEM+0.1% BSA) containing 100 ng/ml pertussis toxin, 0%, 0.25%, 0.5%, or 1.0% DMSO, and a three fold dilution series of doxycycline starting at 1 μg/ml. The plates were placed at 37° C./5% CO2 for 16 hrs to allow the induced expression of the GPR23 receptor. The cells were then loaded with LiveBLAzer™-FRET B/G substrate (2 μM) containing solution D for 2 hrs. The cells were plated at 20,000 cells per well in a 384 well black walled clear bottom tissue culture assay plate in complete media (DMEM+10% FBS). The plates were than placed at 37° C. 5% CO2 for 6 hrs to allow the cells to attach to the assay plate. The complete media was then removed from the plate and replaced with assay media (DMEM+0.1% BSA) containing 100 ng/ml pertussis toxin, 0.5% DMSO, and a three fold dilution series of doxycycline starting at 1 μg/ml. The plates were placed at 37° C. 5% CO2 for 16, 20 or 24 hrs to allow the induced expression of the GPR23 receptor. The cells were then loaded with LiveBLAzer™-FRET B/G substrate (2 μM) containing solution D for 2 hrs. Dose response of T-REx-GPR23-CRE-bla CHO-K1 cells to Doxycycline. T-REx-GPR23-CRE-bla CHO-K1 cells were plated in Growth Media (+) and allowed to attach to the tissue culture plate for 6 hrs. They were then induced for GPR23 expression overnight with doxycycline for 16 hrs in Assay Media. Cells were then loaded with LiveBLAzer™-FRET B/G Substrate (CCF4-AM) for 2 hours. Fluorescence emission values at 460 nm and 530 nm were obtained using a standard florescence plate reader and the Blue/Green Emission Ratios were plotted against the indicated concentrations of doxycycline (FIG. 40).

Structure (SMILES): C[C@H]1c2cccc(O)c2C(=O)C2=C(O)[C@]3(O)C(=O)C(C(N)=O)=C(O)[C@@H](N(C)C)[C@@H]3[C@@H](O)[C@@H]21 [Doxycycline]
- EC50 ([1]; clone #2, 0.5% DMSO): 0.386 ng/mL (≈ 0.869 nM)
- EC50 ([1]; clone #25, 0.5% DMSO): 1.12 ng/mL (≈ 2.52 nM)
- EC50 ([1]; clone #53, 0.5% DMSO): 0.524 ng/mL (≈ 1.18 nM)
- maximum response ratio ([2]; 20,000 cells per well): 5.7 fold
- EC50 ([2]; 16 h, 0% DMSO, 20,000 cells per well): 3.3 ng/mL
- EC50 ([2]; 16 h, 0.25% DMSO, 20,000 cells per well): 4 ng/mL
- EC50 ([2]; 16 h, 0.5% DMSO, 20,000 cells per well): 4 ng/mL
- EC50 ([2]; 16 h, 1.0% DMSO, 20,000 cells per well): 5.1 ng/mL
- EC50 ([2]; 16 h, 2,500 cells/well, 16 hrs induction): 1.3 ng/mL
- EC50 ([2]; 16 h, 5,000 cells/well, 16 hrs induction): 1 ng/mL
- EC50 ([2]; 16 h, 10,000 cells/well, 16 hrs induction): 1.6 ng/mL
- EC50 ([2]; 16 h, 20,000 cells/well, 16 hrs induction): 2 ng/mL
- EC50 ([2]; 16 h, 16 hours induction, 0.5% DMSO): 4 ng/mL
- EC50 ([2]; 20 h, 20 hours induction, 0.5% DMSO): 1.9 ng/mL
- EC50 ([2]; 24 h, 24 hours induction, 0.5% DMSO): 2 ng/mL
- EC50 ([2]; representative data, 16 hrs induction, 2 hours loading): 1.7 nM
